# Laboratory results taken from patent publication US4081441A, “Antibacterial agents” (priority 1977, dated 1978).
# Counter-ions that a name gives are not always drawn. Like-named read-outs stand apart in the source and are kept apart here.
# How the values were obtained:
# [1] = system: Pseudomonas aeruginosa A9843A; format: in vivo, mice; details: intramuscular, mice; as effective as combination 1.25 mg./kg. BL-P1908 + 2 mg./kg. amikacin
# Pseudomonas aeruginosa [2] = experiment: In vitro bactericidal synergism, broth dilution checkerboard; format: cell-based; details: for MBC: Pseudomonas aeruginosa, drug alone
# Pseudomonas aeruginosa [3] = details: prior art; cited from earlier work
smiles,measurement,setting,value
"NCC[C@H](O)C(=O)N[C@@H]1C[C@H](N)[C@@H](O[C@H]2O[C@H](CN)[C@@H](O)[C@H](O)[C@H]2O)[C@H](O)[C@H]1O[C@H]1O[C@H](CO)[C@@H](O)[C@H](N)[C@H]1O [Amikacin, 1-[L-(-)-γ-amino-α-hydroxybutryl]kanamycin A]","equally effective dosage, drug alone",[1],8 mg/kg
same,MBC,"Pseudomonas aeruginosa [2]; strain A20552, read-out: Minimum Bactericidal Concentration",8 µg/mL
same,MBC,"Pseudomonas aeruginosa [2]; strain A21509, read-out: Minimum Bactericidal Concentration",125 µg/mL
same,MBC,"Pseudomonas aeruginosa [2]; strain A21510, read-out: Minimum Bactericidal Concentration",64 µg/mL
same,strain sensitivity,Pseudomonas aeruginosa [2]; strain A9843A,sensitive
same,strain sensitivity,Pseudomonas aeruginosa [2]; strain A20480,sensitive
same,strain sensitivity,Pseudomonas aeruginosa [2]; strain A20552,sensitive
same,strain sensitivity,Pseudomonas aeruginosa [2]; strain A20620,resistant
same,strain sensitivity,Pseudomonas aeruginosa [2]; strain A21509,resistant
same,strain sensitivity,Pseudomonas aeruginosa [2]; strain A21510,resistant
NCC[C@H](O)C(=O)N[C@@H]1C[C@H](N)[C@@H](O[C@H]2O[C@H](CN)[C@@H](O)[C@H](O)[C@H]2O)[C@H](O)[C@H]1O[C@H]1O[C@H](CO)[C@@H](O)[C@H](N)[C@H]1O [amikacin sulfate],MBC,"Pseudomonas aeruginosa [2]; read-out: Minimum Bactericidal Concentration, strain A9843A",4 µg/mL
CC1(C)S[C@@H]2[C@H](NC(=O)C(c3ccccc3)S(=O)(=O)O)C(=O)N2[C@H]1C(=O)O (stereo partly shown) [sulbenicillin],potency against Pseudomonas aeruginosa,Pseudomonas aeruginosa [3],relatively low potency
CC1(C)S[C@@H]2[C@H](NC(=O)[C@H](C(=O)O)c3ccsc3)C(=O)N2[C@H]1C(=O)O [ticarcillin],potency against Pseudomonas aeruginosa,Pseudomonas aeruginosa [3],relatively low potency
